{
  "source": "patent US20210047441A1",
  "about": "“ANTHOCYANIDIN COMPLEX” (priority 2012, published 2021)",
  "key": {"[1]": {"experiment": "Solubility of delphinidin chloride in aqueous cyclodextrin solutions (Example 1)", "format": "physicochemical", "settings": "pure water, cyclodextrin concentration 0; stirred 20 hours at 30° C. in the dark, filtered 0.22 μm", "experimental": "In this example, the complexing of delphinidin by various cyclodextrins and the solubility of the complex in aqueous solution are studied.\nNeutral aqueous solutions comprising 10% by weight of the respective cyclodextrin were prepared.\nIn each case 5 ml of the aqueous cyclodextrin solutions and of pure water were introduced into glass flasks. An excess of delphinidin chloride was then added.\nThe suspensions were stirred for 20 hours at 30° C. in the dark. They were then filtered through a membrane filter of 0.22 μm pore size."}, "[2]": {"experiment": "Stability tests in aqueous solution, 0.9% NaCl at 37° C. (Example 5)", "format": "physicochemical", "settings": "0.9% NaCl solution, dark, start 1.584 mg/ml (complex), 0.0216 mg/ml (uncomplexed)", "description": "In order to determine the content of delphinidin chloride in the delphinidin-containing solutions, a reverse phase HPLC process similar to that already described above was used. The following reagents were used thereby:\nThe delphinidin content was determined after 1, 2, 3 and 4 hours.\nThe determination of the delphinidin content in the samples was calculated with the aid of Agilent ChemStation software using calibration with the described external standard."}},
  "data": [
    {"compound": "Oc1cc(O)c2cc(O)c(-c3cc(O)c(O)c(O)c3)[o+]c2c1.[Cl-]", "note": "[Delphinidin chloride]", "values": [
      {"measurement": "Achievable solubility, Delphinidin chloride", "setting": "[1]", "value": 70, "unit": "µg/mL"},
      {"measurement": "Delphinidin content as percentage of the starting concentration", "setting": "[2]; 0 h", "value": 100, "unit": "%"},
      {"measurement": "Delphinidin content as percentage of the starting concentration", "setting": "[2]; 1 h", "value": 8.3, "unit": "%"},
      {"measurement": "Delphinidin content as percentage of the starting concentration", "setting": "[2]; 2 h", "value": 6.5, "unit": "%"},
      {"measurement": "Delphinidin content as percentage of the starting concentration", "setting": "[2]; 3 h", "value": 5.6, "unit": "%"},
      {"measurement": "Delphinidin content as percentage of the starting concentration", "setting": "[2]; 4 h", "value": 5.1, "unit": "%"}
    ]}
  ]
}
